Measured values from publication PMC9919490, “Synthesis and Biological Evaluation of Novel Dispiro-Indolinones with Anticancer Activity” (Molecules, 2023).

Columns and labels:
Type in all cases: cell-based
HCT^−/− cells = assay: MTT cytotoxicity assay, HCT^−/− (p53 neg); conditions: 48 h
Method: (§1) The synthesized compounds were tested for their ability to block the proliferation of the selected model cell lines: LNCaP (p53+), PC3 (p53-), HCT^wt (p53+), and HCT^−/− (p53-) cells. The assay was carried out using the standard MTT (3-(4,5-dimethylthiazol-2-yl)2,5-diphenyl tetrazolium bromide) assay based on the modified approach reported by Ferrari and colleagues. […] Differences in IC50 values against these cell lines were used to assess the selectivity of the compounds.
(§2) Model cell lines were purchased from the in stock collection of the N.N. Blokhin Russian Cancer Research Center (RAMS). Cells were accurately maintained in the recommended media, supplemented with 10% heat-inactivated FBS (Invitrogen) and 2 mmol/L L-glutamine (Invitrogen).
(§3) First, 4000 cells per well were plated out in 140 µL of DMEM (with 10% FBS) in 96-well plates and incubated in 5% CO2 for 24 h at 37 °C without treatment. […] The cells were treated for 48 h with […] (eight dilutions) concentrations of the substances (each in triplicate) or doxorubicin (0.3 nM–600 nM, eight dilutions) as a control substance. After the incubation, 15 µL of MTT solution in PBS (5 mg/mL) was added, and the cells were incubated for 2 h, followed by removal of the media and addition of 120 µL of DMSO. […] Cell survival rates were determined by the comparison of optical density with the corresponding untreated control cell culture. Dose-dependent curves and the corresponding IC50 values were calculated using “GraphPad Prism 6” software (GraphPad Software, Inc., San Diego, CA, USA).

HCT^wt cells = assay: MTT cytotoxicity assay, HCT^wt (p53 pos); conditions: 48 h
Method: as §1, §2, §3

PC3 cells = assay: MTT cytotoxicity assay, PC3 (p53 neg)
Method: as §1, §2, §3

LNCaP cells = assay: MTT cytotoxicity assay, LNCaP (p53 pos); conditions: 48 h
Method: as §1, §2, §3

Row | SMILES | IC50 (HCT^−/− cells) [µM] | IC50 (HCT^wt cells) [µM] | IC50 (PC3 cells; 48 h) [µM] | IC50 (LNCaP cells) [µM] | IC50 (PC3 cells; Homo sapiens, PC-3, 48 h) [µM] | IC50 (LNCaP cells; Homo sapiens, LNCaP) [µM]
1 | CCOc1ccc(N2C(=O)[C@]3(NC2=S)[C@@H](c2ccc(Cl)c(Cl)c2)CN(C)[C@@]32C(=O)Nc3ccccc32)cc1 (racemic) [Compound 27] | > 100 | > 100 | > 100 | > 100 | – | –
2 | CN1C[C@H](c2ccccc2)[C@]2(NC(=S)N(c3ccccc3)C2=O)[C@]12C(=O)Nc1ccc(Br)cc12 (racemic) [Compound 5] | 12.5 ± 3.2 | 10.5 ± 2.3 | 4.6 ± 2.5 | 2.2 ± 0.8 | – | –
3 | CN1C[C@H](c2ccncc2)[C@]2(NC(=S)N(c3ccccc3)C2=O)[C@]12C(=O)Nc1ccccc12 (racemic) [Compound 19] | > 100 | > 100 | > 100 | > 100 | – | –
4 | CC(c1ccccc1)N1C(=O)C2(NC1=S)C(c1ccccc1Cl)CN(C)C21C(=O)Nc2ccc(Cl)cc21 (mixture of isomers) [Compound 64] | > 100 | 24 ± 6.7 | > 100 | > 100 | – | –
5 | CCOc1ccc([C@H]2CN(C)[C@@]3(C(=O)Nc4ccc(Br)cc43)[C@@]23NC(=S)N(c2ccc(F)cc2)C3=O)cc1 (racemic) [Compound 61] | – | – | > 100 | > 100 | – | –
6 | CN1C[C@H](c2ccc(Cl)cc2)[C@]2(NC(=S)N(c3ccccc3)C2=O)[C@]12C(=O)Nc1ccc(Cl)cc12 (racemic) [Compound 12] | > 100 | > 100 | > 100 | > 100 | – | –
7 | C=CCN1C(=O)[C@]2(NC1=S)[C@@H](c1ccccn1)CN(C)[C@@]21C(=O)Nc2ccccc21 (racemic) [Compound 67] | – | – | > 50 | > 50 | – | –
8 | CN1C[C@H](c2ccccn2)[C@]2(NC(=S)N(c3ccccc3)C2=O)[C@]12C(=O)Nc1ccc(Br)cc12 (racemic) [Compound 17] | 7.6 ± 3.2 | 5.6 ± 2.3 | > 100 | > 100 | – | –
9 | CCOc1ccc(N2C(=O)[C@]3(NC2=S)[C@@H](c2ccc(F)cc2)CN(C)[C@@]32C(=O)Nc3ccc(Br)cc32)cc1 (racemic) [Compound 31] | > 100 | > 100 | > 100 | > 100 | – | –
10 | CN1C[C@H](c2ccccc2Cl)[C@]2(NC(=S)N(c3ccccc3)C2=O)[C@]12C(=O)Nc1ccc(Br)cc12 (racemic) [Compound 10] | – | – | > 100 | > 100 | – | –
11 | CN1C[C@H](c2cccc(Cl)c2)[C@]2(NC(=S)N(c3ccccc3)C2=O)[C@]12C(=O)Nc1ccccc12 (racemic) [Compound 14] | – | – | > 100 | > 100 | – | –
12 | COc1ccc(N2C(=O)[C@]3(NC2=S)[C@@H](c2cccc(Cl)c2)CN(C)[C@@]32C(=O)Nc3ccc(Br)cc32)cc1Cl (racemic) [Compound 59] | – | – | > 50 | > 50 | – | –
13 | COc1ccc([C@H]2CN(C)[C@@]3(C(=O)Nc4ccc(Br)cc43)[C@@]23NC(=S)N(c2ccc(O)cc2)C3=O)cc1OC (racemic) [Compound 56] | > 100 | > 100 | 30 ± 10.5 | 9 ± 2 | – | –
14 | CN1C[C@H](c2ccccn2)[C@]2(NC(=S)N(c3ccccc3)C2=O)[C@]12C(=O)Nc1ccc(Cl)cc12 (racemic) [Compound 18] | > 100 | 60.1 ± 8.6 | 8.2 ± 3.5 | 2.1 ± 0.3 | – | –
15 | CN1C[C@H](c2ccc(Cl)c(Cl)c2)[C@]2(NC(=S)N(c3ccccc3)C2=O)[C@]12C(=O)Nc1ccc(Br)cc12 (racemic) [Compound 16] | 8.8 ± 3.5 | 7.6 ± 1.6 | > 100 | > 100 | – | –
16 | CN1C[C@H](c2cccc(Cl)c2)[C@]2(NC(=S)N(c3ccccc3)C2=O)[C@]12C(=O)Nc1ccc(Cl)cc12 (racemic) [Compound 23] | 50.7 ± 12.6 | 50.7 ± 8.9 | > 100 | > 100 | – | –
17 | CN1CC(c2ccc(Cl)cc2)C2(NC(=S)N(c3ccc(O)cc3)C2=O)C12C(=O)Nc1ccc(Br)cc12 (centres unmarked) [Compound 51, 1-(4-hydroxyphenyl)-4’-(4-chlorophenyl)-1’-methyl-5’’’-bromo-2-thiooxodispiro[imidazolidine-4,3’-pyrrolidine-2’,3”-indoline]-2”,5-dione] | > 100 | > 100 | > 100 | > 100 | – | –
18 | CC(c1ccccc1)N1C(=O)C2(NC1=S)C(c1ccc(Cl)cc1)CN(C)C21C(=O)Nc2ccc(Cl)cc21 (mixture of isomers) [Compound 66] | > 100 | > 100 | > 100 | > 100 | – | –

Row | SMILES | IC50 (HCT^−/− cells) [µM] | IC50 (HCT^wt cells) [µM] | IC50 (PC3 cells; 48 h) [µM] | IC50 (LNCaP cells) [µM] | IC50 (PC3 cells; Homo sapiens, PC-3, 48 h) [µM] | IC50 (LNCaP cells; Homo sapiens, LNCaP) [µM]
19 | CN1C[C@H](c2cccc(Cl)c2)[C@]2(NC(=S)N(c3ccc(F)c(Cl)c3)C2=O)[C@]12C(=O)Nc1ccc(Cl)cc12 (racemic) [Compound 43] | 9.5 ± 4.9 | 9.3 ± 4.6 | 5.7 ± 2.6 | 3.2 ± 1.6 | – | –
20 | CN1C[C@H](c2ccccc2Br)[C@]2(NC(=S)N(c3ccccc3)C2=O)[C@]12C(=O)Nc1ccccc12 (racemic) [Compound 8] | > 100 | > 100 | > 100 | > 100 | – | –
21 | C#CCOc1ccc([C@H]2CN(C)[C@@]3(C(=O)Nc4ccc(Br)cc43)[C@@]23NC(=S)N(c2ccc(OCC)cc2)C3=O)cc1 (racemic) [Compound 34] | > 100 | > 100 | > 100 | > 100 | – | –
22 | CN1CC(c2ccc(Cl)cc2)C2(NC(=S)N(c3ccc(O)cc3)C2=O)C12C(=O)Nc1ccccc12 (centres unmarked) [Compound 50, 1-(4-hydroxyphenyl)-4’-(4-chlorophenyl)-1’-methyl-2-thiooxodispiro[imidazolidine-4,3’-pyrrolidine-2’,3”-indoline]-2”,5-dione] | > 100 | 6.9 ± 3.1 | 4.65 ± 2.3 | 18 ± 4.7 | – | –
23 | C#CCOc1ccc(N2C(=O)[C@]3(NC2=S)[C@@H](c2ccc(Cl)cc2)CN(C)[C@@]32C(=O)Nc3ccccc32)cc1 [Compound 35] | > 100 | > 100 | – | – | > 100 | > 100
24 | CN1C[C@H](c2ccncc2)[C@]2(NC(=S)N(c3ccccc3)C2=O)[C@]12C(=O)Nc1ccc(Cl)cc12 (racemic) [Compound 21] | > 100 | 50.5 ± 10.2 | > 100 | > 100 | – | –
25 | CN1C[C@H](c2ccccc2Cl)[C@]2(NC(=S)N(c3ccccc3)C2=O)[C@]12C(=O)Nc1ccc(Cl)cc12 (racemic) [Compound 11] | > 100 | > 100 | > 100 | > 100 | – | –
26 | CCOc1ccc([C@H]2CN(C)[C@@]3(C(=O)Nc4ccccc43)[C@@]23NC(=S)N(c2ccc(F)cc2)C3=O)cc1 (racemic) [Compound 60] | – | – | > 100 | > 100 | – | –
27 | CN1C[C@H](c2ccccc2Cl)[C@]2(NC(=S)N(c3ccccc3)C2=O)[C@]12C(=O)Nc1ccccc12 (racemic) [Compound 9] | 23.1 ± 6.6 | 21.7 ± 5.8 | > 100 | > 100 | – | –
28 | COc1ccc(C2CN(C)C3(C(=O)Nc4ccc(Cl)cc43)C23NC(=S)N(c2ccc(Cl)cc2)C3=O)cc1OC (centres unmarked) [Compound 39, 1-(4-chlorophenyl)-4’-(3,4-dimethoxyphenyl)-1’-methyl-5’’’-chloro-2-thiooxodispiro[imidazolidine-4,3’-pyrrolidine-2’,3”-indoline]-2”,5-dione] | > 100 | > 100 | > 100 | > 100 | – | –
29 | CCOc1ccc(N2C(=O)[C@]3(NC2=S)[C@@H](c2ccc(Cl)cc2)CN(C)[C@@]32C(=O)Nc3ccccc32)cc1 (racemic) [Compound 28] | > 100 | > 100 | > 100 | > 100 | – | –
30 | CN1C[C@H](c2ccccc2Cl)[C@]2(NC(=S)N(c3ccc(Cl)cc3)C2=O)[C@]12C(=O)Nc1ccc(Cl)cc12 (racemic) [Compound 36] | > 100 | > 100 | > 100 | > 100 | – | –
31 | CC(c1ccccc1)N1C(=O)C2(NC1=S)C(c1ccccc1Cl)CN(C)C21C(=O)Nc2ccc(Br)cc21 (mixture of isomers) [Compound 62] | > 100 | > 100 | > 100 | > 100 | – | –
32 | CN1C[C@H](C2CCCCC2)[C@]2(NC(=S)N(c3ccccc3)C2=O)[C@]12C(=O)Nc1ccc(Br)cc12 (racemic) [Compound 26] | – | – | > 100 | > 100 | – | –
33 | COc1ccc(N2C(=O)[C@]3(NC2=S)[C@@H](c2cccc(Cl)c2)CN(C)[C@@]32C(=O)Nc3ccccc32)cc1Cl (racemic) [Compound 58] | – | – | > 100 | > 100 | – | –
34 | C=CCN1C(=O)[C@]2(NC1=S)[C@@H](c1cccc(Cl)c1)CN(C)[C@@]21C(=O)Nc2ccccc21 (racemic) [Compound 68] | – | – | > 50 | > 50 | – | –
35 | CN1C[C@H](C2CCCCC2)[C@]2(NC(=S)N(c3ccccc3)C2=O)[C@]12C(=O)Nc1ccccc12 (racemic) [Compound 25] | – | – | > 100 | > 100 | – | –
36 | COc1ccc([C@H]2CN(C)[C@@]3(C(=O)Nc4ccc(Br)cc43)[C@@]23NC(=S)N(c2ccc(F)c(Cl)c2)C3=O)cc1OC (racemic) [Compound 45] | – | – | > 100 | > 100 | – | –
